The target in this assay is T1, BSP30b (Bovine Salivary Protein 30b) (Bos taurus, UniProt P79125).
T1 construct: gene SPLUNC2B; E. coli BL21, pProEx Htb (BamHI/XhoI), HiTrap Ni, MONO Q and SEC purified; synthetic F61M/F115M double mutant; model covers about residues 40-235
T1 sequence (P79125 20-240): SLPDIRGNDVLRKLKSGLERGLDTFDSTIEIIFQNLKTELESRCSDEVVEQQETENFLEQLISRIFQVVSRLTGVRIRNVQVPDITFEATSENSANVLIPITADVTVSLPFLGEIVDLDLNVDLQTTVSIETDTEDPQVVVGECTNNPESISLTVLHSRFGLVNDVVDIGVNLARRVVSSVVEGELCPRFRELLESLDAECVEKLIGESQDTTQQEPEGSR
Nature of the assay: X-ray co-crystal structure, […] Å. The assay is classed as binding. Particulars: co-crystallised at pH 7.5 after SEC removal of unbound ligand; in hydrophobic channel, about 80% occupancy in dominant site, weaker in second molecule of ASU; contacts ASP112 and ILE113.

As to `CCCCCCCC/C=C\CCCCCCCC(=O)O` [oleic acid], the “X-ray co-crystal structure, 2.30 Å” value is “The only structure that revealed elongated stretches of electron density within the hydrophobic tunnel”.

Values taken from PMC6461236, “The three dimensional structure of Bovine Salivary Protein 30b (BSP30b) and its interaction with specific rumen bacteria” (PLoS ONE, 2019).
